Test results reported in publication PMC12020424, “Identification and Validation of Cyclic Peptides with Mucin-Selective, Location-Specific Binding in the Gastrointestinal Tract” (ACS Nano, 2025).
“And” between values parts separate entries of the source, which are not always exact repeats. Equal entries are not always repeated. Where two headings read alike, the source gives them in different places. Bridge positions count the residues as written; N and C are the ends. Peptide text beside a SMILES is read from it.

Columns and labels:
[1] = tested on: MUC2-containing intestinal tissue (jejunal); assay: Ex vivo fluorescent binding to small intestine tissue; parameters: species or system porcine; details: MUC2-selective peptides to small intestine, scaled between free AF647 (0) and WGA-AF647 (1), mean across trials n = 3
Source text: (§1) After identifying the peptide hits for each mucin, we tested their binding in an ex vivo setting (Figure S1), evaluating their interaction with mucin-containing porcine tissue and semiquantitatively representing it through fluorescent imaging (Figure 3a). The cyclic peptides were synthesized and conjugated to a fluorophore, Alexa Fluor 647 (AF647), at the N-terminus to allow fluorescent imaging to be used to semiquantitatively measure the peptides’ ex vivo tissue binding, compared to free AF647 and AF647 conjugated to wheat germ agglutinin (WGA), a known lectin for glycoproteins.[40] […] Porcine GI tissue was used due to its similarity in mucin expression compared to human GI tissue and its capacity to source large surface areas of tissue for experiments.[41],[42] Representative IVIS images are shown in Figure 3b-e, where the first four columns represent the four identified peptides (M2.1–M2.4 in Figure 3b,c, M5.1–M5.4 in Figure 3d,e), the fifth column represents WGA-AF647, and the sixth column represents AF647. The “score” results for the peptide ligands are presented in Figure 3f,g for the mucins of interest, with Tables S2–S5 and Figure S3 detailing results for the other tissues (the equation for calculating the “score” is found in the Materials and Methodssection). […] We also examined selectivity by incubating peptides on nontarget tissues. Figure 3h,i depicts the “selectivity” results for the MUC2-selective and MUC5AC-selective peptides, respectively. Selectivity was calculated by determining the ratio of the “score” for a particular mucin to the sum of the “scores” for all mucins (see the Materials and Methods section for the equation used).
(§2) The top-performing hits from phage display were tested on ex vivo segments of porcine mucin-containing tissues (jejunal, stomach, and esophageal tissues) obtained from local abattoirs or laboratory-maintained pigs. Tissue was used either immediately after acquisition or after storage at −80 °C; tissue was used at most 1 week after acquisition and storage at −80 °C. After acquisition and equilibration to room temperature, the tissue was washed twice with 25 mL (each) of cold 1× PBS to remove undigested food and other debris. After washing and cleaning, the tissue was mounted between two magnetic plates with holes corresponding to a 48-well plate, as previously described,[72] such that the luminal side of the tissue was facing up (Figure S1). After the tissue was mounted, the amount of peptide/protein corresponding to 40 μg of AF647 was suspended in 200 μL of 1× PBS and added to the wells created by the magnetic plates. This was done 3× for each formulation to perform the experiment in triplicate. In addition, plain 1× PBS was added to one well to serve as the background measurement. After the peptides were added, the plate setup was covered with aluminum foil and allowed to incubate for 1 h at room temperature with gentle agitation (50 rpm). After incubation, the nonbinding peptides were removed by pouring out the solutions onto a clean paper towel, and the setup was washed three times by adding 200 μL of 1× PBS to each well and gently agitating the setup for 30 s before removing the washing solution. After washing was complete, fluorescence imaging was performed using an IVIS Spectrum fluorescent imaging system (PerkinElmer), with an automatically calculated exposure time (usually ∼1 s), a 20 cm × 20 cm field of view, and an excitation/emission of 640/680 nm, respectively. The imaging results were analyzed using Living Image software to calculate the total fluorescence intensity for each well, and the results for each hit or control were averaged across different wells. The negative control used was unconjugated AF647, while the positive control was WGA-AF647, since WGA is a known lectin that binds glycoproteins.
(§3) To better account for tissue-to-tissue variability, the results for each trial were reported as scores rather than using the raw fluorescence intensity. […]

[2] = tested on: MUC5AC-containing stomach tissue; assay: Ex vivo fluorescent binding to stomach tissue; parameters: species or system porcine; details: MUC5AC-selective peptides to stomach, scaled between free AF647 (0) and WGA-AF647 (1), mean across trials n = 3
Source text: as §1
as §2, with “After the peptides were added, the plate setup was covered with aluminum foil and allowed to incubate for 1 h at room temperature with gentle agitation (50 rpm). After incubation, the nonbinding peptides were removed by pouring out the solutions onto a clean paper towel, and the setup was washed three times by adding 200 μL of 1× PBS to each well and gently agitating the setup for 30 s before removing the washing solution.” left out, “The negative control used was unconjugated AF647, while the positive control was WGA-AF647, since WGA is a known lectin that binds glycoproteins.” left out
as §3

MUC2 = MUC2 (Homo sapiens, UniProt Q02817); assay: Biolayer interferometry binding kinetics, MUC2; details: Octet RED96, biotinylated MUC2 on streptavidin sensor; for Kd: PBS pH 7.2, koff/kon, read-out: dissociation constant kd; for kon: PBS pH 7.2, association 300 s, dissociation 300 s
Protocol: (§4) Binding kinetics for the successful mucin-binding hits were measured using biolayer interferometry (BLI).[73] In BLI, a protein target is immobilized on the surface of a biosensor, creating a thin optical layer. These coated sensors are then exposed to a solution of the ligand (in this case, the small molecule and peptide hits), allowing the ligand to associate and dissociate with the protein target. This association/dissociation behavior changes the thickness of the optical layer, and the instrument correlates this change in thickness with binding and desorption. By testing different concentrations of the ligand, the kinetic rate constants and dissociation constant (kd) can be measured by fitting the resulting binding curves according to a binding model.[73]
(§5) For the analysis of mucin-binding kinetics, mucins MUC2 and MUC5AC were used as the protein targets, and the “hits” were used as the ligands of interest. Mucins were biotinylated and suspended in buffers with different pH levels (MUC2 in PBS with pH 7.2 and PBS-HCl with pH 3.35, MUC5AC in PBS-HCl with pH 1.82) that mimic the pH of the normal small intestine,[74] the small intestine during inflammatory bowel disease,[75] and the normal stomach,[76] respectively. Hits were dissolved in the same buffer to minimize the optical differences among the buffer, mucin solution, and analyte solution. BLI was carried out on an Octet RED96 platform in five steps. First, a baseline step of 60 s was carried out. Then, biotinylated mucins were immobilized onto the surface of a streptavidin sensor during a loading step of 300 s. Next, the loaded tips were allowed to re-equilibrate in another baseline step for 60 s. Following that, the loaded tips were allowed to incubate in a solution of analyte (an association step) for 300 s; this allowed the hits to interact with the mucin, changing the thickness of the optical layer and generating a response from the optical measurement. Finally, the tips were moved to buffer wells, and the hits were allowed to dissociate from the mucin for 300 s. Data were analyzed, and ligand-only and hit-only controls were used as references to properly characterize the binding performance of the hits.
(§6) Binding of the hits to the mucins generally follows one of two different mechanisms. The first is a 1:1 bimolecular model in which the molecule binds to a specific spot on the mucin. The reaction can, therefore, be described using the following model:[77] [drawing 3]
(§7) In this model, kon represents the rate of association of the hit to the mucin, while koff represents the rate of dissociation of the molecule from the molecule-mucin complex. The dissociation constant is calculated as the ratio of these two rate constants.
(§8) The second model is a 2:1 heterogeneous model, in which the molecule binds at two locations on the mucin (each with its own kinetic rate constants and dissociation constant).[78] These reactions are described using the following model: [drawing 4]
(§9) The rate constants for each interaction are equivalent to those of the single interaction present in the 1:1 model, while each interaction has its own dissociation constant. This was calculated similarly to the 1:1 model.

MUC5AC = MUC5AC (Homo sapiens, UniProt P98088); assay: Biolayer interferometry binding kinetics, MUC5AC; details: for Kd: PBS-HCl pH 1.82, koff/kon, read-out: dissociation constant kd
Protocol: as §4, §5, §6, §7, §8, §9

[3] = BLI, Octet RED96, biotinylated MUC5AC on streptavidin sensor

Molecule | Kd (MUC2; BLI) [µM] | Kd (MUC5AC; [3]) [µM] | also measured
Alexa Fluor 647 [Free dye, reference compound] | – | – | Overall nanoparticle “score” [1]: 0; Overall nanoparticle “score” [2]: 0
CC(C)C[C@@H]1NC(=O)[C@H](CO)NC(=O)[C@H](CO)NC(=O)[C@H](C)NC(=O)[C@@H](N)CSSC[C@@H](C(=O)O)NC(=O)[C@H](CCCNC(=N)N)NC(=O)[C@H](C(C)C)NC(=O)[C@H](CO)NC1=O [Peptide M2.4] (H-CASSLSVRC-OH; disulfide 1-9) | 0.112 | – | kon (MUC2; pH 7.2, BLI, read-out: kon): 57700 M⁻¹ s⁻¹; kon (MUC5AC; pH 1.82, BLI, Octet RED96, biotinylated MUC5AC on streptavidin sensor, PBS-HCl pH 1.82, association 300 s, dissociation 300 s): 29500 M⁻¹ s⁻¹
CC[C@H](C)[C@@H]1NC(=O)[C@@H]2CCCN2C(=O)CNC(=O)[C@@H](N)CSSC[C@@H](C(=O)O)NC(=O)[C@H](CC(C)C)NC(=O)[C@H](C)NC(=O)[C@H]([C@@H](C)O)NC(=O)[C@H](Cc2ccc(O)cc2)NC1=O [Peptide M5.2] (H-CGPIYTALC-OH; disulfide 1-9) | 0.112 | 0.00788 | kd for MUC5AC binding compared with MUC2 binding (stronger) (MUC5AC; BLI, MUC5AC pH 1.82 vs MUC2): 2 orders of magnitude
CSCC[C@@H]1NC(=O)CNC(=O)[C@H](CCSC)NC(=O)[C@H]([C@@H](C)O)NC(=O)[C@H](CC(C)C)NC(=O)[C@H](C)NC(=O)[C@H]([C@@H](C)O)NC(=O)[C@@H](N)CSSC[C@@H](C(=O)O)NC1=O [Peptide M5.3] (H-CTALTMGMC-OH; disulfide 1-9) | – | 0.00154 | kon (MUC2; BLI): 6.33 × 10^4 M^–1s^–1 and ~10^4 M^–1s^–1
C[C@@H]1NC(=O)[C@H](CCCNC(=N)N)NC(=O)[C@H](CC(=O)O)NC(=O)[C@@H]2CCCN2C(=O)[C@H](CCCNC(=N)N)NC(=O)CNC(=O)[C@H](CC(=O)O)NC(=O)[C@@H](N)CSSC[C@@H](C(=O)O)NC1=O [Peptide M2.3] (H-CDGRPDRAC-OH; disulfide 1-9) | 0.00711 | 0.0654 | –
